Test results: article PMC7026080, “Phenotypic high-throughput screening platform identifies novel chemotypes for necroptosis inhibition” (Cell Death Discovery, 2020)

Test system: L929 cells
Experiment: Long-term necroptosis inhibition in L929 cells + mTNF-α, 24 h, LDH release
Assay type: cell-based, murine
Details: Mus musculus, 10 ng/mL mTNF-α, screening step 7, read-out: EC50 L929 + TNF-α (in vitro)
Protocol: The ability of compounds to interfere with specific steps of the necroptosis pathway, as well as inherent cytotoxicity and long-term necroptosis inhibitory effects were evaluated using in vitro necroptosis models (Fig. S1). Firstly, the 110 compounds were tested for their ability to modulate TNF-α-induced MLKL phosphorylation, a key necroptotic effector downstream of RIPK3[13]. […] Membrane integrity was evaluated by both AK and LDH release to exclude potential false positives.
Whole cell extracts were analysed by immunoblotting. […] Data represent mean values ± SEM of three independent experiments normalized to untreated control. Cell viability was assessed using a colorimetric-based readout for LDH release.
Whole cell extracts were analysed by immunoblotting. Data shown are representative blots and quantification of p-MLKL/MLKL ratio from one single experiment, in fold-change from control. […] Data represent mean values ± SEM of three independent experiments normalized to untreated control. Cell viability was assessed using a colorimetric-based readout for LDH release. c In vitro screening results for seven selected compounds at different stages of the HTS cascade. TEXT PRINTED IN THE PICTURE: (C) Nec-1: EC50 [μM] L929 + TNF-α (in vitro): 1.25 (Screening Step: 1; Time Point: 8 h); EC50 [μM] L929 + TNF-α (in vitro): 1.13 (Screening Step: 7; Time Point: 24 h); EC50 [μM] […]

**Q.** Which EC50 does the source give for CN1C(=O)C(Cc2c[nH]c3ccccc23)NC1=S (centres unmarked) [Nec-1, necrostatin-1] here?
**A.** 1.13 µM

**Q.** How did the EC50 turn out when O=C(c1cnn(Cc2ccccc2)c1)N1CCOc2ccccc2C1 [SN-6109] was run?
**A.** 11.5 µM
